# Test results taken from US11976083B2, “Inhibitors of peptidylarginine deiminases” (Gilead Sciences, Inc., priority 2020, dated 2024).
# Target: T1, human PAD4 (Homo sapiens, UniProt Q9UM07)
# T1 construct: human PAD4 (NM_012387), A2-P663, was PCR amplified; His-SUMO (N, cleaved yes); made in house; host or cells: E. coli BL21(DE3)
# Test: In vitro PAD4 BAEE biochemical assay
# Details: BAEE substrate 3 mM, 5 nM PAD4, 2 mM calcium chloride; geometric mean of multiple experiments
# In short: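 Ammonia produced by BAEE deimination (3 mM substrate, 2 h, 25 °C) was read as fluorescent isoindole after o-phthalaldehyde/DTT derivatization, ex 405 nm/em 535 nm. Human PAD4 at 5 nM final, 2 mM calcium, pH 7.6 MOPS; compound preincubated 30 min. IC50s, normalized to BB-Cl-Amidine and DMSO controls, were geometric-mean averaged.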
# T1 sequence (Q9UM07 2-663): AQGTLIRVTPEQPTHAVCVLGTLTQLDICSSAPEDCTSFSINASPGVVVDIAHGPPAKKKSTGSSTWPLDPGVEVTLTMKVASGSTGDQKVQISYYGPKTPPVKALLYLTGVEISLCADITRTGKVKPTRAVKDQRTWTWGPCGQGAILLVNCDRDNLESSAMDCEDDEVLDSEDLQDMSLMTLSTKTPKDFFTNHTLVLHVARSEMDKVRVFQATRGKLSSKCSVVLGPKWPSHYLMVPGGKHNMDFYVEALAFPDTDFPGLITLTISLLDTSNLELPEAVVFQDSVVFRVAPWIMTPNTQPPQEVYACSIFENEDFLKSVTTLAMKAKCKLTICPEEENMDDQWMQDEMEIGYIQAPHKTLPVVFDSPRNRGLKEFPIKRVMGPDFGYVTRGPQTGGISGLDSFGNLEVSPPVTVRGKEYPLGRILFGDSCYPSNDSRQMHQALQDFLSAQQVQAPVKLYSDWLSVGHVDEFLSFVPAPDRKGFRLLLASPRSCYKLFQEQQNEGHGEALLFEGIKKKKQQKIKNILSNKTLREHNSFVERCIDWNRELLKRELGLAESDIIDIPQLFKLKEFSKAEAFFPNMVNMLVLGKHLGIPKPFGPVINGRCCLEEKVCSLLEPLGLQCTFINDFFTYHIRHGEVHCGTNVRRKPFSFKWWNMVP
row,Compound,IC50 [nM]
1,"COc1cc(C(=O)N2C[C@H](N)[C@@H]3CC[C@H]2C3)cc2nc(-c3cc4ccc5nc4n3CCCCCc3ccccc3C(=O)N[C@@H]5C)c(C)n12 [Example 936, (2~{R})-17-[7-[(1~{S},4~{R}, 5~{R})-4-amino-2-azabicyclo [3.2.1]octane-2-carbonyl]-5-methoxy-3-methyl-imidazo [1,2-a]pyridin-2-yl]-2-methyl-3,16,22-triazatetracyclo [14.5.2.0^{5,10).0^{19,23}] tricosa-1(21),5(10),6,8,17,19,22-heptaen-4-one]",39
2,"COc1cc(C(=O)N2CCC[C@@H](N)C2)cc2nc(-c3cc4ccc5nc4n3CCCCC[C@@H]3C[C@H]3C(=O)N[C@@H]5C)n(C)c12 [Example 157, (2~{R},5~{R},7~{R})-14-[5-[(3~{R})-3-aminopiperidine-1-carbonyl]-7-methoxy-1-methyl-benzimidazol-2-yl]-2-methyl-3,13,19-triazatetracyclo[11.5.2.0^{5,7}.0^{16,20}] icosa-1(19),14,16(20),17-tetraen-4-one]",36
3,"COc1cc(C(=O)N2C[C@H]3C[C@@H]2[C@@H]3N)cc2nc(-c3cc4ccc5nc4n3CCCCCCC(C)(C)C(=O)N[C@@H]5C)n(C)c12 [Example 667, (11~{R})-17-[5-[(1~{R},4~ {R},5~{R})-5-amino-2-azabicyclo[2.1.1]hexane-2-carbonyl]-7-methoxy-1-methyl-benzimidazol-2-yl]-8,8,11-trimethyl-1,10,19-triazatricyclo[10.5.2.0^ {15,18}]nonadeca-12(19), 13,15(18),16-tetraen-9-one]",70
4,"C[C@H]1NC(=O)c2ccc(Cl)nc2CCCCCn2c(-c3nc4cc(C(=O)N5C[C@H](N)[C@@H]6CC[C@H]5C6)cc(F)c4n3C3CC3)cc3ccc1nc32 [Example 472, (2˜{R})-17-[5-[(1˜{S},4˜{R},5˜{R})-4-amino-2-azabicyclo[3.2.1]octane-2-carbonyl]-1-cyclopropyl-7-fluoro-benzimidazol-2-yl]-8-chloro-2-methyl-3,9,16,22-tetrazatetracyclo[14.5.2.0^{5,10}.0^{19,23}]tricosa-1(21),5(10),6,8,17,19,22-heptaen-4-one]",42
5,"COc1cc(C(=O)N2CCC[C@@H](N)C2)cc2nc(-c3cc4ccc5cc4n3CCC/C=C/CC(C)(C)C(=O)N[C@@H]5C)n(C)c12 [Example 273, (5˜{E},11˜{R})-17-[5-[(3˜{R})-3-aminopiperidine-1-carbonyl]-7-methoxy-1-methyl-benzimidazol-2-yl]-8,8,11-trimethyl-1,10-diazatricyclo[10.5.2.0^{15,18}]nonadeca-5,12(19),13,15(18),16-pentaen-9-one]",68
6,"(2~{R})-17-[5-[(1~{S),4~{R}, 5~{R})-4-amino-2-azabicyclo [3.2.1]octane-2-carbonyl]-1- cyclopropyl-benzimidazol-2- yl]-8-chloro-2-methyl-3,9,16,22- tetrazatetracyclo[14.5.2.0^ {5,10}.0^{19,23}]tricosa- 1(22),5(10),6,8,17,19(23),20- heptaen-4-one [Example 926]",23

# Continued by falling IC50, values first:
row,IC50 [nM],Compound
1,89,"COc1cc(C(=O)N2[C@H]3CC[C@@H]2[C@H](N)C3)cc2nc(-c3cc4ccc5nc4n3CCCCCCC(=O)Nc3ncccc3-5)n(C)c12 [Example 84, 17-[5-[(1~{R},2~{R},4~{S})-2-amino-7-azabicyclo[2.2.1]heptane-7-carbonyl]-7-methoxy-1-methyl-benzimidazol-2-yl]-6,8,16,22-tetrazatetracyclo[14.5.2.0^{2,7}.0^{19,23}] tricosa-1(22),2,4,6,17,19(23),20-heptaen-9-one]"
2,65,"COc1cc(C(=O)N2CCC[C@@H](N)C2)cc2nc(-c3cc4ccc5nc4n3C[C@@H]3C[C@@H]3COCCC(=O)N[C@@H]5C)n(C)c12 [Example 305, (3~{R},5~{S},12~{R})-18-[5-[(3~{R})-3-aminopiperidine-1-carbonyl]-7-methoxy-1-methyl-benzimidazol-2-yl]-12-methyl-7-oxa-1,11,20-triazatetracyclo[11.5.2.0^{3,5).0^{16,19}] icosa-13(20),14,16(19),17-tetraen-10-one]"
